According to ChEMBL document CHEMBL5724914, “Linking interpersonal differences in gut microbiota composition and drug biotransformation activity” (2024):

Legend:
[1] = The drug is tested on WLS-370 corresponding to human gut metagenome with ENA study accession number: PRJEB37062 and ENA sample accession number: ERS12561793 for biotransformation under anaerobic condition. The drug concentrations were measured over 9 timepoints collected between 0 and 24 hours of incubation by liquid-chromatography-coupled mass spectrometry (LC–MS); details: 2 µM
[2] = human gut metagenome, 24 h, 2 µM
[3] = The drug is tested on WLS-098 corresponding to human gut metagenome with ENA study accession number: PRJEB37062 and ENA sample accession number: ERS12561754 for biotransformation under anaerobic condition. The drug concentrations were measured over 9 timepoints collected between 0 and 24 hours of incubation by liquid-chromatography-coupled mass spectrometry (LC–MS); details: 2 µM
[4] = The drug is tested on WLS-090 corresponding to human gut metagenome with ENA study accession number: PRJEB37062 and ENA sample accession number: ERS12561753 for biotransformation under anaerobic condition. The drug concentrations were measured over 9 timepoints collected between 0 and 24 hours of incubation by liquid-chromatography-coupled mass spectrometry (LC–MS); details: 2 µM
[5] = human gut metagenome, 24 h, 2 µM; remark: listed apart in the source
[6] = human gut metagenome, 24 h, 2 µM; remark: listed apart in the source
[7] = human gut metagenome, 24 h, 2 µM; remark: listed apart in the source
[8] = The drug is tested on WLS-082 corresponding to human gut metagenome with ENA study accession number: PRJEB37062 and ENA sample accession number: ERS12561751 for biotransformation under anaerobic condition. The drug concentrations were measured over 9 timepoints collected between 0 and 24 hours of incubation by liquid-chromatography-coupled mass spectrometry (LC–MS); details: 2 µM
[9] = human gut metagenome, 24 h, 2 µM; remark: listed apart in the source
Also: call rule not given here.

| Structure (SMILES) | Bacterial Biotransformation [1] | Bacterial Biotransformation [2] | Bacterial Biotransformation [3] | Bacterial Biotransformation [4] | Bacterial Biotransformation [5] | Bacterial Biotransformation [6] | Bacterial Biotransformation [7] | Bacterial Biotransformation [8] | Bacterial Biotransformation [9] |
| --- | --- | --- | --- | --- | --- | --- | --- | --- | --- |
| Br.COc1ccc2c(c1)[C@]13CCCC[C@@H]1[C@H](C2)N(C)CC3.O [DEXTROMETHORPHAN HYDROBROMIDE] | Compound metabolized | Compound metabolized | Compound metabolized | Compound metabolized | Compound NOT metabolized | Compound metabolized | Compound metabolized | Compound NOT metabolized | Compound metabolized |
| CC#C[C@]1(O)CC[C@H]2[C@@H]3CCC4=CC(=O)CCC4=C3[C@@H](c3ccc(N(C)C)cc3)C[C@@]21C [MIFEPRISTONE] | Compound NOT metabolized | Compound NOT metabolized | Compound NOT metabolized | Compound metabolized | Compound NOT metabolized | Compound metabolized | Compound NOT metabolized | Compound metabolized | Compound NOT metabolized |
| CCCCCNC(=N)N/N=C/c1c[nH]c2ccc(OC)cc12.O=C(O)/C=C\C(=O)O [TEGASEROD MALEATE] | Compound NOT metabolized | Compound NOT metabolized | Compound NOT metabolized | Compound metabolized | Compound NOT metabolized | Compound NOT metabolized | Compound NOT metabolized | Compound metabolized | Compound NOT metabolized |
| Cc1ccccc1C(OCCN(C)C)c1ccccc1.O=C(O)CC(O)(CC(=O)O)C(=O)O (stereo not drawn) [ORPHENADRINE CITRATE] | Compound NOT metabolized | Compound NOT metabolized | Compound NOT metabolized | Compound NOT metabolized | Compound metabolized | Compound metabolized | Compound metabolized | Compound NOT metabolized | Compound metabolized |
| CC(C)(C)N.CCC[C@H](N[C@@H](C)C(=O)N1[C@H](C(=O)O)C[C@@H]2CCCC[C@@H]21)C(=O)OCC [PERINDOPRIL ERBUMINE] | Compound metabolized | Compound metabolized | Compound metabolized | Compound metabolized | Compound metabolized | Compound metabolized | Compound metabolized | Compound metabolized | Compound metabolized |
| COC(=O)C(c1ccccc1)C1CCCCN1 (stereo not drawn) [METHYLPHENIDATE] | Compound NOT metabolized | Compound NOT metabolized | Compound NOT metabolized | Compound metabolized | Compound metabolized | Compound metabolized | Compound NOT metabolized | Compound NOT metabolized | Compound NOT metabolized |
| C#C[C@]1(OC(C)=O)CC[C@H]2[C@@H]3CCC4=CC(=O)CC[C@@H]4[C@H]3CC[C@@]21C [NORETHINDRONE ACETATE] | Compound metabolized | Compound NOT metabolized | Compound metabolized | – | Compound metabolized | Compound metabolized | Compound metabolized | – | Compound metabolized |
| CSc1ccc2c(c1)C(N1CCN(C)CC1)Cc1ccccc1S2.O=C(O)/C=C\C(=O)O (stereo not drawn) | Compound NOT metabolized | Compound metabolized | Compound metabolized | Compound metabolized | Compound NOT metabolized | Compound NOT metabolized | Compound NOT metabolized | – | Compound NOT metabolized |
| COC1=C(OC)C(=O)C(CCCCCCCCCCO)=C(C)C1=O [IDEBENONE] | Compound metabolized | Compound metabolized | – | – | Compound metabolized | Compound metabolized | – | Compound metabolized | Compound metabolized |
| Cc1cc2c(s1)Nc1ccccc1N=C2N1CCN(C)CC1 [OLANZAPINE] | Compound NOT metabolized | – | – | – | Compound NOT metabolized | Compound NOT metabolized | Compound NOT metabolized | Compound NOT metabolized | Compound NOT metabolized |
| CN1[C@@H]2CC[C@H]1C[C@@H](OC(=O)[C@H](CO)c1ccccc1)C2 [HYOSCYAMINE] | – | – | Compound metabolized | – | – | Compound metabolized | – | – | – |
| COc1ccc(Cc2nccc3cc(OC)c(OC)cc23)cc1OC [PAPAVERINE] | Compound metabolized | Compound metabolized | – | Compound metabolized | Compound metabolized | Compound metabolized | Compound metabolized | – | Compound NOT metabolized |
| CCc1cccc2c3c([nH]c12)C(CC)(CC(=O)O)OCC3 (stereo not drawn) [ETODOLAC] | Compound metabolized | Compound metabolized | Compound metabolized | Compound metabolized | Compound metabolized | Compound metabolized | Compound metabolized | – | Compound metabolized |
